Source: ChEMBL document CHEMBL3886913, “2,4-diamino-6,7-dihydro-5H-pyrrolo[2,3]pyrimidine derivatives as FAK/Pyk2 inhibitors” (2016)
pIC50: −log10 of the molar value.

Legend:
Focal adhesion kinase 1 = Focal adhesion kinase 1 (Homo sapiens, UniProt Q05397); test: (§1) Biochemical Assay: To measure inhibitory activity of FAK/PYK2 inhibitors, compounds were first prepare as a 1 mM stock in 100% DMSO and 3-fold serial dilution was performed in a 96-well plate (Corning, 3897) to generate 12 different concentration of 100× stock. A 5 μl of 100× stock of each concentration was added to wells containing 95 μl of 1× reaction buffer (40 mM Tris, pH7.5, […], 1 mM DTT and 1 mM CHAPS) to generate 5× stock. Then 2 μl of 5× stock of each concentration was added to a 384 wells-OptiPlate (PerkinElmer, 6007299). For FAK, 4 μl of 2.5 nM FAK, 1 μl of 8 μg/μl BSA and 1.5 μl of 666 nM ULight-poly Glu, Ala, Tyr (1:1:1) peptide substrate, prepared in above reaction buffer, were added to each well. The reaction was initiated by adding 1.5 μl of 33.3 μM ATP. The reaction was allowed to proceed for 120 min before being quenched with 5 μl of 40 mM EDTA stop buffer prepared in 1×LANCE detection buffer (PerkinElmer, CR97-100). For PYK2, 5 μl of 2 nM PYK2 and 1.5 μl of 666 nM ULight-poly Glu, Ala, Tyr (1:1:1) peptide substrate, prepared in above reaction buffer, were added to each well. The reaction was initiated by adding 1.5 μl of 46.6 μM ATP. The reaction was allowed to proceed for 40 min before being quenched with 5 μl of 40 mM EDTA stop buffer prepared in 1×LANCE detection buffer (PerkinElmer, CR97-100). Upon quenching of the reaction, 5 μl of 8 nM anti-phosphotyrosine antibody was added to each well and incubated for 60 minutes.
Chain of Focal adhesion kinase 1 (Q05397 whole entry): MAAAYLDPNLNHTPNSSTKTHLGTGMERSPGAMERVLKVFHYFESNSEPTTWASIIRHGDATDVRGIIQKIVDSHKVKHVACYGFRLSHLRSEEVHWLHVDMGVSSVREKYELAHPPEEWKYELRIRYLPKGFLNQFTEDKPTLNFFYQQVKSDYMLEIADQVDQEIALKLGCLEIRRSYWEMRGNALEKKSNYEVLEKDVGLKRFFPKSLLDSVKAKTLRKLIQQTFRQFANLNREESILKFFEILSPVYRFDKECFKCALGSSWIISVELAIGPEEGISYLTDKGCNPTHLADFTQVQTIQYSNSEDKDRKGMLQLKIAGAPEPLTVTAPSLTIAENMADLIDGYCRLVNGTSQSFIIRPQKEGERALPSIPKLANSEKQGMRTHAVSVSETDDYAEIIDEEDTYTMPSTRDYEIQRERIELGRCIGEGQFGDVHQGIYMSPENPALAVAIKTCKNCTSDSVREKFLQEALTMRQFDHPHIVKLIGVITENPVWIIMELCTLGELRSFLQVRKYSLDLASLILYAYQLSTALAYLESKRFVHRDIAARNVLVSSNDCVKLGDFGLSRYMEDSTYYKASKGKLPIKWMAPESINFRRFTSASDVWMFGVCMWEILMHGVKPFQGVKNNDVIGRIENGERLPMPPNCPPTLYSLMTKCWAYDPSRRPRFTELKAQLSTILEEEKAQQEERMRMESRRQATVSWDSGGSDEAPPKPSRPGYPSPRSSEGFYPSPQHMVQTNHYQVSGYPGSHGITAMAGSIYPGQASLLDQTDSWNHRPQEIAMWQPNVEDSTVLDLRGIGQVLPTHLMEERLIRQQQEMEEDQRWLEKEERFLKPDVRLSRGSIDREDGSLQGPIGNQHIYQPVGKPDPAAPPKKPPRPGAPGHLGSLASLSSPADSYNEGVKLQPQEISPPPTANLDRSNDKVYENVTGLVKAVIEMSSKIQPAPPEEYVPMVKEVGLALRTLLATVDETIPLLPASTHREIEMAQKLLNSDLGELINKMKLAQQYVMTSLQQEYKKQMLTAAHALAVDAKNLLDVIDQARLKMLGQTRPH

[1] = biological target: Protein-tyrosine kinase 2-beta (Homo sapiens, UniProt Q14289); test: as §1
Chain of Protein-tyrosine kinase 2-beta (Q14289 whole entry): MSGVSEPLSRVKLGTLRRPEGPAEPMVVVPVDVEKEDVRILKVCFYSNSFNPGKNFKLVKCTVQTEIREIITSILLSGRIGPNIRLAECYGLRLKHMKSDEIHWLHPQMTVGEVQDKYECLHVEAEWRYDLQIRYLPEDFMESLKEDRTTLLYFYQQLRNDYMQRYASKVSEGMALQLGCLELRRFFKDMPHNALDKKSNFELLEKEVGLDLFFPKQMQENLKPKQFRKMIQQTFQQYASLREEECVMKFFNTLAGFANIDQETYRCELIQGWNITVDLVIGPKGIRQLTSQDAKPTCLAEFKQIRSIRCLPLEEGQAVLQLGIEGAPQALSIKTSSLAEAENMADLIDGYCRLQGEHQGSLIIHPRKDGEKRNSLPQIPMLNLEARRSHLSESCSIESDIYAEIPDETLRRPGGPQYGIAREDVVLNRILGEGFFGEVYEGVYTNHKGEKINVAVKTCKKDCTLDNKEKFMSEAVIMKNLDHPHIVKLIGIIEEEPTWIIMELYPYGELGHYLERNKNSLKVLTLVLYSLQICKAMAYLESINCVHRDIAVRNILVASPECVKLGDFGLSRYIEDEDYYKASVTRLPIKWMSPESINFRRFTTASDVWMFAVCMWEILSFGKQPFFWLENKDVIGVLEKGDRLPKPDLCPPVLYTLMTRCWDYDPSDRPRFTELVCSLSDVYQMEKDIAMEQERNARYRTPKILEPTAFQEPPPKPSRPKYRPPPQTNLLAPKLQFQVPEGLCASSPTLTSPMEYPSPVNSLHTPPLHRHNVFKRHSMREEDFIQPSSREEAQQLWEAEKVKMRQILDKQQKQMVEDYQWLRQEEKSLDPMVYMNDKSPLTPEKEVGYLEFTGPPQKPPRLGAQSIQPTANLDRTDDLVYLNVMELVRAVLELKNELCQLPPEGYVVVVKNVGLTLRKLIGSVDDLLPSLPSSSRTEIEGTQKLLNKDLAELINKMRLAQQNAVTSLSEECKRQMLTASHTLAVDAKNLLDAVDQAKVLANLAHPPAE

Row | SMILES | pIC50 (Focal adhesion kinase 1) | pIC50 [1]
1 | COc1cc(N2CCCCC2=O)ccc1Nc1nc2c(c(Nc3ccccc3S(=O)(=O)NC(C)C)n1)CCN2 | > 7.70 | > 7.70
2 | CCC(C)NS(=O)(=O)c1ccccc1Nc1nc(Nc2ccc(N3CCOCC3)cc2OC)nc2c1C1(CC1)CN2 (stereo unspecified) | > 7.70 | > 7.70
3 | COc1cc(N2CCOCC2)ccc1Nc1nc2c(c(Nc3ccccc3CCO)n1)CCN2 | > 6.00 | > 6.00
4 | COc1cc(N2C(=O)CCc3ccccc32)ccc1Nc1nc2c(c(Nc3ccccc3S(=O)(=O)NC(C)C)n1)CCN2 | > 6.30 | > 6.30

More lines, now with the values ahead:

Row | pIC50 (Focal adhesion kinase 1) | pIC50 [1] | SMILES
5 | > 7.30 | > 7.00 | CCOc1cc(N2CCOCC2)ccc1Nc1nc2c(c(Nc3ccccc3S(=O)(=O)NC(C)C)n1)CCN2
6 | < 6.00 | > 6.00 | COc1cc(N2CCOCC2)ccc1Nc1nc2c(c(Nc3ccc(F)c(F)c3)n1)CCN2
7 | > 7.70 | > 7.70 | CC(C)NS(=O)(=O)c1ccccc1Nc1nc(Nc2ccc(C(C)N3CCCCC3)cc2)nc2c1CCN2 (stereo unspecified)
8 | > 7.70 | > 7.70 | COc1cc(N2CCC(N3CCOCC3)CC2)ccc1Nc1nc2c(c(Nc3ccccc3S(=O)(=O)NC(C)C)n1)CCN2
